The source made the active and inactive calls. No cut-off for these calls is given here.
Experiments:
[1] = target: Tumor necrosis factor (Homo sapiens) (UniProt P01375); test: Potency index, ratio of test compound activity to 5-aminosalicylate activity for inhibition of TNFalpha (unknown origin)-induced adhesion of BCECF fluorescence-labeled human U937 cells to human HT-29 cells
[2] = target: Tumor necrosis factor (Homo sapiens) (UniProt P01375); test: Inhibition of TNFalpha (unknown origin)-induced adhesion of BCECF fluorescence-labeled human U937 cells to human HT-29 cells at 10 uM measured at 3 hrs post TNFalpha stimulation relative to control
[3] = target: Tumor necrosis factor (Homo sapiens) (UniProt P01375); test: Inhibition of TNFalpha (unknown origin)-induced MCP-1 expression in human HT-29 cells at 10 uM preincubated with cells for 1 hr followed by TNFalpha induction of 3 hrs by Western blot analysis; type: cell-based
Rattus norvegicus [4] = test: In vivo of inhibition of TNFalpha-induced up-regulation of MCP-1 expression in TNBS-induced colitis Sprague-Dawley rat model at 25 mg/kg/day, po administered on day of TNBS administration and on four consecutive days measured on day 6 by Western blot method; type: functional, organism-based
[5] = target: Tumor necrosis factor (Homo sapiens) (UniProt P01375); test: Inhibition of TNFalpha (unknown origin)-induced ICAM-1 expression in human HT-29 cells at 10 uM preincubated with cells for 1 hr followed by TNFalpha induction of 3 hrs by Western blot analysis; type: cell-based
Rattus norvegicus [6] = test: In vivo of inhibition of TNBS-induced up-regulation of TNFalpha in TNBS-induced colitis Sprague-Dawley rat model at 25 mg/kg/day, po administered on day of TNBS administration and on four consecutive days measured on day 6 by Western blot method; type: functional, organism-based
Rattus norvegicus [7] = test: In vivo of inhibition of TNBS-induced increase in myeloperoxidase level in TNBS-induced colitis Sprague-Dawley rat model colon tissue at 25 mg/kg/day, po administered on day of TNBS administration and on four consecutive days measured on day 6; type: functional, organism-based
Rattus norvegicus [8] = test: In vivo of inhibition of TNFalpha-induced SNAIL expression in TNBS-induced colitis Sprague-Dawley rat model at 25 mg/kg/day, po administered on day of TNBS administration and on four consecutive days measured on day 6 by Western blot method; type: functional, organism-based
Rattus norvegicus [9] = test: In vivo of inhibition of TNFalpha-induced up-regulation of ICAM-1 expression in TNBS-induced colitis Sprague-Dawley rat model at 25 mg/kg/day, po administered on day of TNBS administration and on four consecutive days measured on day 6 by Western blot method; type: functional, organism-based
Rattus norvegicus [10] = test: In vivo of inhibition of TNBS-induced decrease in body weight in TNBS-induced colitis Sprague-Dawley rat model at 25 mg/kg/day, po administered on day of TNBS administration and on four consecutive days measured on day 6; type: functional, organism-based
Rattus norvegicus [11] = test: In vivo of inhibition of TNBS-induced increase in colon weight in TNBS-induced colitis Sprague-Dawley rat model at 25 mg/kg/day, po administered on day of TNBS administration and on four consecutive days measured on day 6; type: functional, organism-based
[12] = target: Tumor necrosis factor (Homo sapiens) (UniProt P01375); test: Inhibition of TNFalpha (unknown origin)-induced SNAIL expression in human HT-29 cells at 10 uM pretreated with cells for 1 hr followed by TNFalpha induction for 3 hrs by Western blot analysis; type: cell-based
Rattus norvegicus [13] = test: In vivo of inhibition of TNBS-induced up-regulation of IL-1beta in TNBS-induced colitis Sprague-Dawley rat model at 25 mg/kg/day, po administered on day of TNBS administration and on four consecutive days measured on day 6 by Western blot method; type: functional, organism-based
[14] = target: Tumor necrosis factor (Homo sapiens) (UniProt P01375); test: Inhibition of TNFalpha (unknown origin)-induced decrease in E-cadherin expression in human HT-29 cells at 10 uM pretreated with cells for 1 hr followed by TNFalpha induction for 3 hrs by Western blot analysis; type: cell-based
[15] = target: Tumor necrosis factor (Homo sapiens) (UniProt P01375); test: Inhibition of TNFalpha (unknown origin)-induced NFkappaB transcriptional activity in human HT-29 cells at 10 uM pretreated with cells for 1 hr followed by TNFalpha induction for 3 hrs by dual luciferase reporter gene assay; type: cell-based
Rattus norvegicus [16] = test: In vivo of inhibition of TNFalpha-induced decrease in E-cadherin expression in TNBS-induced colitis Sprague-Dawley rat model at 25 mg/kg/day, po administered on day of TNBS administration and on four consecutive days measured on day 6 by Western blot method; type: functional, organism-based
Rattus norvegicus [17] = test: In vivo of inhibition of TNBS-induced increase in colon weight in TNBS-induced colitis Sprague-Dawley rat model at 300 mg/kg/day, po administered on day of TNBS administration and on four consecutive days measured on day 6; type: functional, organism-based
Rattus norvegicus [18] = test: In vivo of inhibition of TNBS-induced decrease in body weight in TNBS-induced colitis Sprague-Dawley rat model at 300 mg/kg/day, po administered on day of TNBS administration and on four consecutive days measured on day 6; type: functional, organism-based
Rattus norvegicus [19] = test: In vivo of inhibition of TNBS-induced increase in myeloperoxidase level in TNBS-induced colitis Sprague-Dawley rat model colon tissue at 300 mg/kg/day, po administered on day of TNBS administration and on four consecutive days measured on day 6; type: functional, organism-based
[20] = target: Tumor necrosis factor (Homo sapiens) (UniProt P01375); test: Potency index, ratio of 5-aminosalicylate IC50 to test compound IC50 for TNFalpha (unknown origin)-induced adhesion of BCECF fluorescence-labeled human U937 cells to human HT-29
[21] = target: Tumor necrosis factor (Homo sapiens) (UniProt P01375); test: Inhibition of TNFalpha (unknown origin)-induced adhesion of BCECF fluorescence-labeled human U937 cells to human HT-29 cells at 20 mM measured at 3 hrs post TNFalpha stimulation relative to control

Sequence of Tumor necrosis factor (Homo sapiens) (P01375 whole entry): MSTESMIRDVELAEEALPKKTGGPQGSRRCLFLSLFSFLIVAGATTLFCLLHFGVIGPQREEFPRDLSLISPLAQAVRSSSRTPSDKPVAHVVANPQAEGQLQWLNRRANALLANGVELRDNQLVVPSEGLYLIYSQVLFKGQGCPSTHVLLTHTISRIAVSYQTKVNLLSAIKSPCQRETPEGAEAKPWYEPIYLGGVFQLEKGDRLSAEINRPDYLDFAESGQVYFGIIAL

## O=C1/C(=C/c2ccccn2)Cc2ccc(O)cc21
[1]
  Ratio: 7 to 23
[2]
  inhibition: 54.8%

## CC(C)Oc1ccc2c(c1)C(=O)/C(=C/c1ccncc1)C2
[2]
  inhibition: 45.7%

## CCOc1ccc2c(c1)C(=O)/C(=C/c1ccncc1)C2
[2]
  inhibition: 7.3%

## O=C1/C(=C/c2ccncc2)Cc2c(O)cccc21
[3]
  inhibition: Active
Rattus norvegicus [4]
  inhibition: Active
[5]
  inhibition: Active
Rattus norvegicus [6]
  inhibition: Active
Rattus norvegicus [7]
  inhibition: Active
Rattus norvegicus [8]
  inhibition: Active
Rattus norvegicus [9]
  inhibition: Active
Rattus norvegicus [10]
  inhibition: Active
Rattus norvegicus [11]
  inhibition: Active
[12]
  inhibition: Active
[1]
  Ratio: 7 to 23
Rattus norvegicus [13]
  inhibition: Active
[14]
  inhibition: Active
[15]
  inhibition: Active
[2]
  inhibition: 78%
Rattus norvegicus [16]
  inhibition: Active

## CCOc1cccc2c1C/C(=C\c1ccncc1)C2=O
[2]
  inhibition: 51.2%

## O=C1/C(=C/c2ccncc2)Cc2cc(O)ccc21
[1]
  Ratio: 7 to 23
[2]
  inhibition: 26.6%

## O=C1/C(=C/c2cccnc2)Cc2c(O)cccc21
[1]
  Ratio: 7 to 23
[14]
  inhibition: inactive
[15]
  inhibition: Active
[2]
  inhibition: 70.8%

## O=C1/C(=C/c2ccncc2)Cc2cccc(O)c21
[1]
  Ratio: 7 to 23
[14]
  inhibition: inactive
[15]
  inhibition: Active
[2]
  inhibition: 74.6%

## O=C1/C(=C/c2cccnc2)Cc2ccc(O)cc21
[1]
  Ratio: 7 to 23
[14]
  inhibition: inactive
[15]
  inhibition: Active
[2]
  inhibition: 74.7%

## COc1ccc2c(c1)C(=O)/C(=C/c1ccncc1)C2
[2]
  inhibition: 4.1%

## O=C(O)c1cc(/N=N/c2ccc(S(=O)(=O)Nc3ccccn3)cc2)ccc1O
Rattus norvegicus [17]
  inhibition: Active
Rattus norvegicus [18]
  inhibition: Active
Rattus norvegicus [19]
  inhibition: Active

## O=C1/C(=C/c2ccncc2)Cc2ccc(O)cc21
[3]
  inhibition: Active
Rattus norvegicus [4]
  inhibition: Active
[5]
  inhibition: Active
[20]
  Ratio IC50: > 10000
Rattus norvegicus [6]
  inhibition: Active
Rattus norvegicus [7]
  inhibition: Active
Rattus norvegicus [8]
  inhibition: Active
Rattus norvegicus [9]
  inhibition: Active
Rattus norvegicus [10]
  inhibition: Active
Rattus norvegicus [11]
  inhibition: Active
[12]
  inhibition: Active
[1]
  Ratio: 7 to 23
Rattus norvegicus [13]
  inhibition: Active
[14]
  inhibition: Active
[15]
  inhibition: Active
[2]
  inhibition: 85.5%
Rattus norvegicus [16]
  inhibition: Active

## O=C1/C(=C/c2ccccn2)Cc2cc(O)ccc21
[1]
  Ratio: 7 to 23
[2]
  inhibition: 58.1%

## Nc1ccc(O)c(C(=O)O)c1
[21]
  inhibition: 52.1%

## O=C1/C(=C/c2cccnc2)Cc2cc(O)ccc21
[1]
  Ratio: 7 to 23
[2]
  inhibition: 67%

## O=C1/C(=C/c2ccccn2)Cc2cccc(O)c21
[1]
  Ratio: 7 to 23
[2]
  inhibition: 46.2%

## COc1cccc2c1C/C(=C\c1ccncc1)C2=O
[2]
  inhibition: 5.9%

## CC(C)Oc1cccc2c1C/C(=C\c1ccncc1)C2=O
[2]
  inhibition: 60.9%

## O=C1/C(=C/c2ccccn2)Cc2c(O)cccc21
[1]
  Ratio: 7 to 23
[2]
  inhibition: 64.5%

## O=C1/C(=C/c2cccnc2)Cc2cccc(O)c21
[1]
  Ratio: 7 to 23
[2]
  inhibition: 46.1%
